Laboratory results: patent US11084879B2, “Compositions and methods for treating pancreatitis and pain with death receptor agonists” (The Johns Hopkins University, priority 2016, dated 2021)
Read-outs that look alike come from different tables or passages of the source.

Key:
activated PSCs = experiment: Apoptosis markers in activated PSCs, TRAILPEG versus conventional toxic agents; assay type: cell-based, human; conditions: 48 hr, DOX 100 nM, CIS 10 μM, H2O2 10 μM
[1] = rodents; cited from earlier work
[2] = humans; cited from earlier work
EtOH-activated PSCs = experiment: Caspase 3/7 assay in EtOH-activated PSCs; assay type: cell-based, human; conditions: alcohol-activated PSCs; different concentrations (0-10^3 ng/mL), alcohol still present in culture
Procedure: Caspase 3/7 activities were measured by caspase3/7 assay kit (Promega) according to the manufacturer's protocol. The luminescence of each sample was measured on a plate reader (Bio-Tek Instruments Inc) with parameters of 1 min lag time and 0.5 sec/well read time (n=4).
To investigate TRAIL-induced apoptosis in alcohol-activated PSCs, 2×10^4 cells were cultured for overnight in a 96-well plate and then activated with 50 mM EtOH for 48 h. […] Apoptosis was measured by MTT cell death assay and caspase 3/7 assay as described above.

Row | Molecule | killing of activated PSCs by conventional toxic agents (activated PSCs) | other results
1 | N.N.[Cl][Pt][Cl] [cisplatin] | difficult to kill | 
2 | COc1cccc2c1C(=O)c1c(O)c3c(c(O)c1C2=O)C[C@@](O)(C(=O)CO)C[C@@H]3O[C@H]1C[C@H](N)[C@H](O)[C@H](C)O1 [doxorubicin] | difficult to kill | 
3 | OO [hydrogen peroxide] | difficult to kill | 
4 | TRAIL: TNF (Tumor Necrosis Factor)-related apoptosis-inducing ligand, protein ligand that induces apoptosis |  | t1/2 [1]: less than 5 min; t1/2 [2]: < 30 min
5 | conatumumab: human anti-DR5 agonistic antibody (Creative Biolabs) |  | apoptosis (caspase 3/7 activity, FIG. 9) (EtOH-activated PSCs): induced strong apoptosis dose-dependently
